Results: PubChem BioAssay (NCI)
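A five-concentration, 48-hour dose response in 96-well plates underlies each endpoint, interpolated linearly between surrounding concentrations. TGI: total growth inhibition.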

Columns and labels:
Test in all cases: inhibition of tumour cell growth, NCI panel, 48 h
M14 melanoma = tested on: M14 melanoma
MALME-3M melanoma = tested on: MALME-3M melanoma
OVCAR-3 ovarian = tested on: OVCAR-3 ovarian
UO-31 renal = tested on: UO-31 renal
PC-3 prostate = tested on: PC-3 prostate
NCI-H23 lung = tested on: NCI-H23 lung
HL-60(TB) leukemia = tested on: HL-60(TB) leukemia
NCI-H460 lung = tested on: NCI-H460 lung
SF-268 CNS = tested on: SF-268 CNS
MOLT-4 leukemia = tested on: MOLT-4 leukemia
CAKI-1 renal = tested on: CAKI-1 renal
SNB-19 CNS = tested on: SNB-19 CNS
SN12C renal = tested on: SN12C renal
SF-539 CNS = tested on: SF-539 CNS
COLO 205 colon = tested on: COLO 205 colon
HCT-15 colon = tested on: HCT-15 colon
IGROV1 ovarian = tested on: IGROV1 ovarian
T-47D breast = tested on: T-47D breast
SR leukemia = tested on: SR leukemia
HOP-92 NSCLC = tested on: HOP-92 NSCLC

| Compound | TGI (M14 melanoma) [µM] | TGI (MALME-3M melanoma) [µM] | TGI (OVCAR-3 ovarian) [µM] | TGI (UO-31 renal) [µM] | TGI (PC-3 prostate) [µM] | TGI (NCI-H23 lung) [µM] | TGI (HL-60(TB) leukemia) [µM] | TGI (NCI-H460 lung) [µM] | TGI (SF-268 CNS) [µM] | TGI (MOLT-4 leukemia) [µM] | TGI (CAKI-1 renal) [µM] | TGI (SNB-19 CNS) [µM] | TGI (SN12C renal) [µM] | TGI (SF-539 CNS) [µM] | TGI (COLO 205 colon) [µM] | TGI (HCT-15 colon) [µM] | TGI (IGROV1 ovarian) [µM] | TGI (T-47D breast) [µM] | TGI (SR leukemia) [µM] | TGI (HOP-92 NSCLC) [µM] |
| --- | --- | --- | --- | --- | --- | --- | --- | --- | --- | --- | --- | --- | --- | --- | --- | --- | --- | --- | --- | --- |
| O=C(O)CCSCc1ccccc1 | > 100 | > 100 | > 100 | > 100 | > 100 | > 100 | > 100 | > 100 | > 100 | > 100 | > 100 | > 100 | > 100 | > 100 | > 100 | > 100 | > 100 | > 100 |  |  |
| Cc1c(N2CCN(C)CC2)nc2ccc(Cl)cc2c1-c1ccccc1 | 34.9 | 35.7 | 74.3 | 36.1 |  | 55.4 | 34.5 | 33.4 | > 100 | > 10 | 41.6 | 66.2 | 29 | 33.9 | 29.7 | 40.7 |  |  | 39.2 |  |
| COC(=O)c1ccc(N=NN(C)COc2ccc(Br)cc2)cc1 |  | > 100 | > 100 | > 100 |  | > 100 | 59.7 | > 100 | > 100 | > 92.6 | > 100 | > 100 | > 100 | > 100 | > 100 | > 100 | > 100 |  |  | > 100 |
| COc1cc(/C=N/n2c(-c3ccccc3)nn(C(C)=O)c2=O)cc(OC)c1OC | > 58.9 | > 46.6 |  | 54.4 | > 81.8 | > 49.4 | 9.68 | > 39.2 | > 100 | > 52.7 | > 100 | > 52.3 | > 100 | 8.54 | 4.55 | > 100 | > 100 | > 100 |  | > 89.7 |
| CC(=O)Nc1ccc2c3c(cc(O)c2c1)N(C(=O)CCCCCCC(=O)N1CC(CCl)c2c1cc(O)c1cc(NC(C)=O)ccc21)CC3CCl (configuration not stated) | 0.0177 | 0.0233 |  |  | 1.13 | 0.0228 |  |  | 0.464 |  | 0.894 | 0.913 | 0.237 | 0.0413 | 0.0161 | 3.59 | 0.499 | < 0.01 |  |  |
| CC(C)NC(=O)N(Nc1ccccc1)C(C)(C)C | > 100 | > 100 | > 100 | > 100 | > 100 | > 100 | > 100 | > 100 |  | > 100 | > 100 | > 100 | > 100 | > 100 | > 100 | > 100 | > 100 |  | > 100 | > 100 |
| Cc1ccc(S(=O)(=O)Oc2nc3ccccc3nc2OS(=O)(=O)c2ccc(C)cc2)cc1 | > 100 | 35 | > 100 | > 100 | > 100 | > 100 | > 100 | > 100 | > 100 | > 100 | 82.4 | > 100 | > 100 | > 100 | > 100 | > 100 | > 100 |  | > 100 |  |
| CC(C)[C@H](NC(=O)[C@H](N)Cc1ccc(N(CCCl)CCCl)cc1)C(=O)O | > 100 | > 100 | > 100 | > 100 | > 100 | > 100 | > 100 | > 100 | > 100 | > 100 | > 100 | > 100 | > 100 |  | > 100 | > 100 | > 100 | > 100 |  | > 100 |
| CCOc1ccc(N/C(=C(/C(Cl)=C(/Cl)N2CCCCC2)[N+](=O)[O-])n2nnc3ccccc32)cc1 | 38.2 | 39.6 | 33.7 | 4.17 | 26.1 | 29.7 |  | 70.4 | 37.4 | > 100 | 28.4 | 44 | 41.9 | 36.9 | 42.5 | 29 |  | 49.6 |  | 42 |
| Cc1cccc2c1c(=O)c1c(O)c3c(cc1n2C)OC(C)(C)C=C3 | > 10 | > 10 | > 10 |  | > 10 | > 10 | > 10 | > 10 | > 10 | > 10 | > 10 | > 10 | > 10 | > 10 | > 10 | > 10 | > 10 | > 10 | > 10 |  |
| O=C(CN1CCOCC1)c1ccc2c(c1)oc(=O)n2CCN1CCOCC1 | > 100 | > 100 | > 100 |  | > 100 |  | > 100 |  | > 100 | > 100 | > 100 | > 100 | > 100 | > 100 | > 100 |  | > 100 |  | > 100 |  |
| N#CC(=N)c1ncn(-c2ccc(N)cc2)c1N | > 100 | > 100 | > 100 | > 100 | > 100 | > 100 | > 100 | > 100 | > 100 | > 100 | > 100 | > 100 | > 100 | > 100 | > 100 | > 100 | > 100 | > 100 | > 100 |  |
| CC(C)N=C(N)NC#N | > 100 | > 100 | > 100 | > 100 |  |  | > 100 | > 100 | > 100 | > 100 | > 100 | > 100 | > 100 | > 100 | > 100 | > 100 | > 100 |  |  |  |
| CCCCCCCCCCCCCCCCCCNC(=S)/N=C\C1=C(O)c2ccccc2C1=O | 22 | 28.1 | 29.1 | 23.3 | 15.9 | 31.9 | > 100 | 26.2 | 22.1 | 16.5 | 31.2 | 35.9 | 31.1 | 36.7 | 29.1 | 26.7 | 5.62 | 37.2 |  | 14.1 |
